# Tests used:
# [1] = system: ACI to LEW rat cardiac transplant; type: in vivo; conditions: given with CSA
# Source text: An ACI-LEW rat cardiac transplant model was used to test the ability of 2-CDA to suppress allograft chronic rejection.
# Animals were sacrificed at 90 days post transplant. Heart grafts were subjected to evaluation which included the quantification of the extent to which the following pathologies typically associated with chronic allograft rejection were present in the allograft models: myocardial Infiltration (MI), myocardial fibrosis (MF), and intimal proliferation (IP).
# Each of these pathologies is associated with the vascular disease of transplant arteriosclerosis.
# [2] = system: allogeneic small bowel transplantation; conditions: rats sacrificed ten days after small bowel transplantation; cited from earlier work
# [3] = system: heart allografts; conditions: cited from earlier work
structure (smiles),measurement,setting,value
"Nc1nc(Cl)nc2c1ncn2[C@H]1C[C@H](O)[C@@H](CO)O1 [2-CDA, 2-chlorodeoxyadenosine]",most effective dose of 2-CDA,[1],1 mg per kilogram of recipient body mass per week
same,graft rejection (histology),[2],moderate to severe rejection
same,effect on allograft rejection,[3]; 2-CDA alone,no effect
same,rejection of heart allografts (histology),"[3]; rats, 10 days post transplant",severe rejection

# Reference: patent publication US7368423B1, “Composition and method for treating chronic allograft rejection” (priority 2001, dated 2008)
